In test [1] the test system is human multiple myeloma cell line, OPM-2. As to the kind of experiment: Cell viability assay (OPM-2 10 FBS), CellTiter-Glo. It counts as cell-based. In outline: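 IC50 values come from 4-parameter logistic fits of luminescence signals reflecting cell viability. Treatment lasted 16 h at 37 °C in complete medium with 10% FBS, starting from 3000 cells/well.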
For test [2], the target named is recombinant human Mcl-1 (residues 171-327) / Bim interaction (Homo sapiens (Human), UniProt Q07820). The test is described as follows: biochemical. It counts as binding. The following applies: read-out: Mcl-1 HTRF IC50. On the technique in general: Time-resolved FRET reads energy transfer from a long-lived donor to a nearby acceptor.
Chain of recombinant human Mcl-1 (residues 171-327) / Bim interaction (Q07820 171-327): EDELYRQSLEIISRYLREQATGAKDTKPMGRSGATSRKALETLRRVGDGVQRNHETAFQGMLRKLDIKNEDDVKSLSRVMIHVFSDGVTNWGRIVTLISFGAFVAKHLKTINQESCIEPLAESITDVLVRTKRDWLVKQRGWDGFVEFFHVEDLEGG
[3] abbreviates: Homo sapiens, OPM-2, 16 h, read-out: OPM-2 10% FBS IC50 IP, OPM-2 cells, 10% FBS, 16 h, CellTiter-Glo.
[4] abbreviates: Homo sapiens, OPM-2, 16 h, read-out: OPM-2 10% FBS IC50 IP, OPM-2 cells, 10% FBS, 16 h incubation.
Where [5] appears, read: 0.1 nM Mcl-1(171-327), 0.05 nM biotin-Bim (51-76).
[6] abbreviates: TR-FRET, Mcl-1(171-327) / biotin-Bim (51-76).
Setting [7] is: read-out: OPM-2 10% FBS IC50 IP, OPM-2 cells, 10% FBS, 16 h, CellTiter-Glo.
Where [8] appears, read: read-out: OPM-2 10% FBS IC50 IP, OPM-2 cells, 10% FBS, 16 h incubation.

Read-outs that look alike come from different tables or passages of the source.

For orientation: IC50 means the concentration at which inhibition is half-maximal.

On to `CC#C[C@]1(O)/C=C/C[C@H](C)[C@@H](C)S(=O)(=O)NC(=O)c2ccc3c(c2)N(C[C@@H]2CC[C@H]21)C[C@@]1(CCCc2cc(Cl)ccc21)CO3` [Example 100499, (1S,3′R,6′R,7′S,8′E,11′S,12′R)-6-chloro-7′-hydroxy-11′,12′-dimethyl-7′-(1-propyn-1-yl)-3,4-dihydro-2H,15′H-spiro[naphthalene-1,22′-[20]oxa[13]thia[1,14]diazatetracyclo [14.7.2.0~3,6~.0~19,24~]pentacosa[8,16,18,24]tetraen]-15′-one 13′,13′-dioxide], for which the values for the half-maximal inhibitory concentration (IC50) in test [1] (setting [3]) and in test [2] were 1120 nM and 0.509 nM, respectively.
With `C[C@@H]1[C@@H](C)C/C=C/[C@]2(CN(Cc3cccnc3)CCO2)[C@@H]2CC[C@H]2CN2C[C@@]3(CCCc4cc(Cl)ccc43)COc3ccc(cc32)C(=O)NS1(=O)=O` [Example 137, (1S,3′R,6′R,7′R,8′E,11′S,12′R)-6-chloro-11′,12′-dimethyl-4″- (3-pyridinylmethyl)-3,4-dihydro-2H,15′H-dispiro[naphthalene-1,22′-[20]oxa[13]thia[1,14]diazatetracyclo [14.7.2.0~3,6~.0~19,24~]pentacosa[8,16,18,24]tetraene-7′,2″-[1,4]oxazinan]-15′-one 13′,13′-dioxide], the 50% inhibitory concentration (IC50) was 1150 nM in test [1] (setting [4]) and 4.74 nM in test [2] (setting [5]).
As for `CO[C@]1(CCO)/C=C/C[C@H](C)[C@@H](C)S(=O)(=O)NC(=O)c2ccc3c(c2)N(C[C@@H]2CC[C@H]21)C[C@@]1(CCCc2cc(Cl)ccc21)CO3` [Example 100217, (1S,3′R,6′R,7′R,8′E,11′S,12′R)-6-chloro-7′-(2-hydroxyethyl)-7′-methoxy-11′,12′-dimethyl-3,4-dihydro-2H,15′H-spiro[naphthalene-1,22′-[20]oxa[13]thia[1,14]diazatetracyclo [14.7.2.0~3,6~.0~19,24~]pentacosa[8,16,18,24]tetraen]-15′-one 13′,13′-dioxide], the IC50 in test [1] (setting [3]) came out at 130 nM; in test [2] (setting [6]), 0.183 nM.
With `CO[C@@]1(C[C@@H](O)C(C)C)/C=C/C[C@H](C)[C@@H](C)S(=O)(=O)NC(=O)c2ccc3c(c2)N(C[C@@H]2CC[C@H]21)C[C@@]1(CCCc2cc(Cl)ccc21)CO3` (single isomer, unassigned) [Example 100367], the IC50 came out at 604 nM in test [1] (setting [7]) and 0.371 nM in test [2] (setting [6]).
On to `C[C@@H]1[C@@H](C)CCC[C@]2(CC(N3CCCC3)=NO2)[C@@H]2CC[C@H]2CN2C[C@@]3(CCCc4cc(Cl)ccc43)COc3ccc(cc32)C(=O)NS1(=O)=O` [Example 100147, (1S,3′R,6′R,7′S,11′S,12′R)-6-chloro-11′,12′-dimethyl-3″-(1-pyrrolidinyl)-3,4-dihydro-2H,4″H,15′H-dispiro[naphthalene-1,22′-[20]oxa[13]thia[1,14]diazatetracyclo [14.7.2.0~3,6~.0~19,24~]pentacosa[16,18,24]triene-7′,5″-[1,2]oxazol]-15′-one 13′,13′-dioxide], for which the half-inhibitory concentration (IC50) in test [1] (setting [3]) stood at 666 nM; in test [2] (setting [6]), 0.305 nM.
Consider `C[C@@H]1[C@@H](C)C/C=C/[C@](O)(Cc2nccs2)[C@@H]2CC[C@H]2CN2C[C@@]3(CCCc4cc(Cl)ccc43)COc3ccc(cc32)C(=O)NS1(=O)=O` [Example 100245, (1S,3′R,6′R,7′R,8′E,11′S,12′R)-6-chloro-7′-hydroxy-11′,12′-dimethyl-7′-(1,3-thiazol-2-ylmethyl)-3,4-dihydro-2H,15′H-spiro[naphthalene-1,22′-[20]oxa[13]thia[1,14]diazatetracyclo [14.7.2.0~3,6~.0~19,24~]pentacosa[8,16,18,24]tetraen]-15′-one 13′,13′-dioxide], for which the results for the IC50 in test [1] (setting [7]) and in test [2] were 1980 nM and 1.71 nM, respectively.
With `C=C(F)C[C@@]1(OC)/C=C/C[C@H](C)[C@@H](C)S(=O)(=O)NC(=O)c2ccc3c(c2)N(C[C@@H]2CC[C@H]21)C[C@@]1(CCCc2cc(Cl)ccc21)CO3` [Example 100568, (1S,3′R,6′R,7′R,8′E,11′S,12′R)-6-chloro-7′-(2-fluoro-2-propen-1-yl)-7′-methoxy-11′,12′-dimethyl-3,4-dihydro-2H,15′H-spiro[naphthalene-1,22′-[20]oxa[13]thia[1,14]diazatetracyclo [14.7.2.0~3,6~.0~19,24~]pentacosa[8,16,18,24]tetraen]-15′-one 13′,13′-dioxide], the IC50 in test [1] (setting [3]) is 1540 nM; in test [2] (setting [6]), 0.431 nM.
The corresponding values for `C[C@@H]1[C@@H](C)CCC[C@]2(COC(=O)O2)[C@@H]2CC[C@H]2CN2C[C@@]3(CCCc4cc(Cl)ccc43)COc3ccc(cc32)C(=O)NS1(=O)=O` (single isomer, unassigned) [Example 100055] are 4630 nM and 1.27 nM.
For the molecule `CO[C@]1(C)CCC[C@H](C)[C@@H](C)S(=O)(=O)NC(=O)c2ccc3c(c2)N(C[C@@H]2CC[C@H]21)C[C@@]1(CCCc2cc(Cl)ccc21)CO3` (single isomer, unassigned) [Example 100211], the figures for the IC50 in test [1] (setting [7]) and in test [2] (setting [6]) were 4780 nM and 1.44 nM, respectively.
As to `C[C@@H]1[C@@H](C)CCC[C@@](O)(CC(=O)N2CCCCC2)[C@@H]2CC[C@H]2CN2C[C@@]3(CCCc4cc(Cl)ccc43)COc3ccc(cc32)C(=O)NS1(=O)=O` [Example 100089, (1S,3′R,6′R,7′R,11′S,12′R)-6-chloro-7′-hydroxy-11′,12′-dimethyl-7′-(2-oxo-2-(1-piperidinyl)ethyl)-3,4-dihydro-2H,15′H-spiro[naphthalene-1,22′-[20]oxa[13]thia[1,14]diazatetracyclo [14.7.2.0~3,6~.0~19,24~]pentacosa[16,18,24]trien]-15′-one 13′,13′-dioxide], the IC50 in test [1] (setting [7]) is 325 nM; in test [2] (setting [6]), 0.348 nM.
Regarding `COC[C@@H]1[C@@H](C)C/C=C/[C@](CN2CCN3CCCC[C@@H]3C2)(OC)[C@@H]2CC[C@H]2CN2C[C@@]3(CCCc4cc(Cl)ccc43)COc3ccc(cc32)C(=O)NS1(=O)=O` [Example 169], the half-inhibitory concentration (IC50) was 74 nM in test [1] (setting [4]) and 0.14 nM in test [2] (setting [5]).
Consider `CO[C@@]1(CN2CCN3CCN(C)C[C@@H]3C2)/C=C/C[C@H](C)[C@@H](C)S(=O)(=O)NC(=O)c2ccc3c(c2)N(C[C@@H]2CC[C@H]21)C[C@@]1(CCCc2cc(Cl)ccc21)CO3` [Example 210], for which the IC50 in test [1] (setting [8]) is 185 nM; in test [2] (setting [5]), 0.138 nM.
Take `CC[C@@H]1CCCC[C@](CO)(OC)[C@@H]2CC[C@H]2CN2C[C@@]3(CCCc4cc(Cl)ccc43)COc3ccc(cc32)C(=O)NS1(=O)=O` [Example 100041, (1S,3′R,6′R,7′S,12′R)-6-chloro-12′-ethyl-7′-(hydroxymethyl)-7′-methoxy-3,4-dihydro-2H,15′H-spiro[naphthalene-1,22′-[20]oxa[13]thia[1,14]diazatetracyclo [14.7.2.0~3,6~.0~19,24~]pentacosa[16,18,24]trien]-15′-one 13′,13′-dioxide]: the 50% inhibitory concentration (IC50) was 4990 nM in test [1] (setting [3]) and 3.36 nM in test [2] (setting [6]).
Consider `C[C@@H]1[C@@H](C)C/C=C/[C@@](O)(C#CCO)[C@@H]2CC[C@H]2CN2C[C@@]3(CCCc4cc(Cl)ccc43)COc3ccc(cc32)C(=O)NS1(=O)=O` [Example 100395, (1S,3′R,6′R,7′S,8′E,11′S,12′R)-6-chloro-7′-hydroxy-7′-(3-hydroxy-1-propyn-1-yl)-11′,12′-dimethyl-3,4-dihydro-2H,15′H-spiro[naphthalene-1,22′-[20]oxa[13]thia[1,14]diazatetracyclo [14.7.2.0~3,6~.0~19,24~]pentacosa[8,16,18,24]tetraen]-15′-one 13′,13′-dioxide], for which the 50% inhibitory concentration (IC50) came to 40 nM in test [1] (setting [7]) and 0.056 nM in test [2] (setting [6]).
Consider `C[C@@H]1[C@@H](C)C/C=C/[C@@](O)(CC(=O)N(C)c2ccccc2)[C@@H]2CC[C@H]2CN2C[C@@]3(CCCc4cc(Cl)ccc43)COc3ccc(cc32)C(=O)NS1(=O)=O` [Example 100247, 2-((1S,3′R,6′R,7′S,8′E,11′S,12′R)-6-chloro-7′-hydroxy-11′,12′-dimethyl-13′,13′-dioxido-15′-oxo-3,4-dihydro-2H-spiro[naphthalene-1,22′-[20]oxa[13]thia[1,14]diazatetracyclo [14.7.2.0~3,6~.0~19,24~]pentacosa[8,16,18,24]tetraen]-7′-yl)-N-methyl-N-phenylacetamide], for which the concentration for half-maximal inhibition (IC50) in test [1] (setting [3]) is 624 nM; in test [2] (setting [6]) it was 0.542 nM.
As to `COC(OC)c1cncc([C@]2(O)/C=C/C[C@H](C)[C@@H](C)S(=O)(=O)NC(=O)c3ccc4c(c3)N(C[C@@H]3CC[C@H]32)C[C@@]2(CCCc3cc(Cl)ccc32)CO4)c1` (single isomer, unassigned) [Example 100510], the half-inhibitory concentration (IC50) in test [1] (setting [3]) is 379 nM; in test [2] (setting [6]), 0.07 nM.
Take `CO[C@@]1(CN2CCN3CCN(S(C)(=O)=O)C[C@@H]3C2)/C=C/C[C@H](C)[C@@H](C)S(=O)(=O)NC(=O)c2ccc3c(c2)N(C[C@@H]2CC[C@H]21)C[C@@]1(CCCc2cc(Cl)ccc21)CO3` (single isomer, unassigned) [Example 245]: the IC50 is 58 nM in test [1] (setting [8]) and 0.12 nM in test [2] (setting [5]).
`Cc1cc(C[C@]2(O)/C=C/C[C@H](C)[C@@H](C)S(=O)(=O)NC(=O)c3ccc4c(c3)N(C[C@@H]3CC[C@H]32)C[C@@]2(CCCc3cc(Cl)ccc32)CO4)no1` [Example 100541, (1S,3′R,6′R,7′S,8′E,11′S,12′R)-6-chloro-7′-hydroxy-11′,12′-dimethyl-7′-((5-methyl-1,2-oxazol-3-yl)methyl)-3,4-dihydro-2H,15′H-spiro[naphthalene-1,22′-[20]oxa[13]thia[1,14]diazatetracyclo [14.7.2.0~3,6~.0~19,24~]pentacosa[8,16,18,24]tetraen]-15′-one 13′,13′-dioxide]: the IC50 in test [1] (setting [3]) amounted to 826 nM; in test [2] (setting [6]), 0.76 nM.
